# Results reported in PubChem BioAssay (NCI).
#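 48-hour exposure; five concentrations; linearly interpolated endpoints. Here, GI50 denotes the concentration required for 50% inhibition of growth. The concentration for full growth arrest is given as TGI.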
# What was measured:
# Assay in all cases: NCI-60 cell line screen, 48 h
# [1] = system: UACC-257 melanoma
# [2] = system: LOX IMVI melanoma
# [3] = system: COLO 205 colon
# [4] = system: SNB-19 CNS
# [5] = system: HT29 colon
# [6] = system: NCI-H460 lung
# [7] = system: SNB-75 CNS
# [8] = system: M14 melanoma
# [9] = system: T-47D breast
# [10] = system: UACC-62 melanoma
# [11] = system: RPMI-8226 leukemia
# [12] = system: HCC-2998 colon
# [13] = system: A549 NSCLC
# [14] = system: HS 578T breast
# [15] = system: HOP-92 NSCLC
# [16] = system: SK-MEL-28 melanoma
# [17] = system: SF-268 CNS
# [18] = system: NCI/ADR-RES ovarian
# [19] = system: KM12 colon
# [20] = system: OVCAR-4 ovarian
# [21] = system: K-562 leukemia
# [22] = system: NCI-H522 lung
# [23] = system: 786-0 renal
# [24] = system: MOLT-4 leukemia
# [25] = system: CCRF-CEM leukemia
# [26] = system: DU-145 prostate
# [27] = system: ACHN renal
# [28] = system: HCT-15 colon
# [29] = system: U251 CNS
smiles,measurement,setting,value
CN1CCN(Cc2ccc(NC(=O)c3cncc(C#Cc4cnc5ccc(OCC6(C)COC6)nn45)c3)cc2C(F)(F)F)CC1,TGI,[1],829 nM
same,GI50,[2],107 nM
same,TGI,[2],322 nM
same,GI50,[3],111 nM
same,TGI,[3],236 nM
same,GI50,[4],200 nM
same,TGI,[4],668 nM
same,GI50,[5],151 nM
same,TGI,[5],639 nM
same,GI50,[6],194 nM
same,TGI,[6],669 nM
same,GI50,[7],128 nM
same,TGI,[7],357 nM
same,GI50,[8],84.9 nM
same,TGI,[8],218 nM
same,GI50,[9],279 nM
same,TGI,[9],1150 nM
same,GI50,[10],125 nM
same,TGI,[10],577 nM
same,GI50,[11],223 nM
same,TGI,[11],1440 nM
same,GI50,[12],199 nM
same,TGI,[12],656 nM
same,GI50,[13],145 nM
same,TGI,[13],433 nM
same,GI50,[14],80.4 nM
same,TGI,[14],321 nM
same,GI50,[15],59.5 nM
same,TGI,[15],217 nM
same,GI50,[16],167 nM
same,TGI,[16],612 nM
same,GI50,[17],117 nM
same,TGI,[17],333 nM
same,GI50,[18],163 nM
same,TGI,[18],580 nM
same,GI50,[19],5 nM
same,TGI,[19],352 nM
same,GI50,[20],135 nM
same,TGI,[20],757 nM
same,GI50,[21],5 nM
same,TGI,[21],50000 nM
same,GI50,[22],96.7 nM
same,TGI,[22],204 nM
same,GI50,[23],215 nM
same,TGI,[23],720 nM
same,GI50,[24],145 nM
same,TGI,[24],16500 nM
same,GI50,[25],165 nM
same,TGI,[25],15900 nM
same,GI50,[26],164 nM
same,TGI,[26],527 nM
same,GI50,[27],108 nM
same,TGI,[27],465 nM
same,GI50,[28],123 nM
same,TGI,[28],408 nM
same,GI50,[29],193 nM
same,TGI,[29],715 nM
